Test [1] has as its system pinch skin graft from male DBA/2 donors transplanted to male BALB/c recipients. Kind of test: survival time of pinch skin graft. The settings on record: intraperitoneally; mean ± SD. It counts as in vivo. Here is the method: Immunosuppressive activity was evaluated in an in vitro standard pharmacological test procedure to measure lymphocyte proliferation (LAF) and in two in vivo standard pharmacological test procedures. The first in vivo procedure was a popliteal lymph node (PLN) test procedure which measured the effect of compounds of this invention on a mixed lymphocyte reaction and the second in vivo procedure evaluated the survival time of a pinch skin graft.
The second in vivo test procedure is designed to determine the survival time of pinch skin graft from male DBA/2 donors transplanted to male BALB/c recipients. The method is adapted from Billingham R.E. and Medawar P.B., J. Exp. Biol. 28:385-402, (1951). Briefly, a pinch skin graft from the donor is grafted on the dorsum of the recipient as a homograft, and an autograft is used as control in the same region. […] Untreated recipients serve as rejection control. The graft is monitored daily and observations are recorded until the graft becomes dry and forms a blackened scab. This is considered as the rejection day. The mean graft survival time (number of days ±S.D.) of the drug treatment group is compared with the control group.

The next test relates to Candida albicans 3669. Kind of test: antifungal plate test, MIC. Format: cell-based. Here is the method:
(§1) The following represents the typical procedure used. Compound to be tested was placed on sterile dried 1/4" plate disks, and allowed to dry. Agar plates were seeded with fungi and allowed to solidify. The impregnated disks were placed on the seeded Agar surface and incubated for the time required for the particular culture. Results are expressed in MIC (μg/ml) to inhibit growth.

Test [2] relates to Candida albicans ATCC 10231. In words: antifungal plate test, MIC. It counts as cell-based. The settings on record: ATCC10231. Here is the method:
as §1

The test system of test [3] is Candida albicans ATCC 38246. In words: antifungal plate test, MIC. It counts as cell-based. The conditions noted are these: ATCC38246. Here is the method: as §1
Test [4] relates to Candida albicans ATCC 38247. Kind of test: antifungal plate test, MIC. It counts as cell-based. The settings on record: ATCC38247. Here is the method:
as §1

For test [5], the system named is Candida albicans ATCC 38248. In words: antifungal plate test, MIC. Format: cell-based. The conditions noted are these: ATCC38248. Here is the method: as §1

Converted amounts (≈) assume the structure as drawn.

This is an account of results in patent US5130307A, “Aminoesters of rapamycin” (American Home Products Corporation, priority 1991, dated 1992).

What is called MIC is the smallest concentration in the dilution series that meets the test's criterion for growth inhibition. Higher therefore signals weaker potency. In the case of `CO[C@H]1C[C@@H]2CC[C@@H](C)[C@@](O)(O2)C(=O)C(=O)N2CCCC[C@H]2C(=O)O[C@H]([C@H](C)C[C@@H]2CC[C@@H](OC(=O)CNC(=O)CNC(=O)OC(C)(C)C)[C@H](OC)C2)CC(=O)[C@H](C)/C=C(\C)[C@@H](O)[C@@H](OC)C(=O)[C@H](C)C[C@H](C)/C=C/C=C/C=C/1C` [Example 1, Rapamycin-42-ester with N-[(1,1-dimethylethoxy)carbonyl]-glycylglycine], in test [1], the “Skin Graft (days + SD), mean graft survival time” value (shortened to “Skin Graft (days + SD)”) is on record as 12.0 ± 1.6 days. For the same compound, the MIC (in the test with Candida albicans 3669; in test [2]; in test [3]; in test [4]; in test [5]) was more than 0.4 µg/mL throughout.
Regarding `CO[C@H]1C[C@@H]2CC[C@@H](C)[C@@](O)(O2)C(=O)C(=O)N2CCCC[C@H]2C(=O)O[C@H]([C@H](C)C[C@@H]2CC[C@@H](OC(=O)CNC(=O)CNC(=O)OC(C)(C)C)[C@H](OC)C2)CC(=O)[C@H](C)/C=C(\C)[C@@H](OC(=O)CNC(=O)CNC(=O)OC(C)(C)C)[C@@H](OC)C(=O)[C@H](C)C[C@H](C)/C=C/C=C/C=C/1C` [Example 2, Rapamycin-31,42-diester with N-[(1,1-dimethylethoxy)carbonyl]-glycylglycine], in test [1], the “Skin Graft (days + SD)” value is reported as 11.5 ± 0.6 days. Besides, the MIC against Candida albicans 3669 came out at 0.1 µg/mL (≈ 0.0745 µM); in test [2], 0.1 µg/mL (≈ 0.0745 µM); in test [3], 0.2 µg/mL (≈ 0.149 µM); in test [4], 0.2 µg/mL (≈ 0.149 µM); in test [5], 0.2 µg/mL (≈ 0.149 µM).
Take `CO[C@H]1C[C@@H]2CC[C@@H](C)[C@@](O)(O2)C(=O)C(=O)N2CCCC[C@H]2C(=O)O[C@H]([C@H](C)C[C@@H]2CC[C@@H](OC(=O)CN(C)C(=O)OC(C)(C)C)[C@H](OC)C2)CC(=O)[C@H](C)/C=C(\C)[C@@H](OC(=O)CN(C)C(=O)OC(C)(C)C)[C@@H](OC)C(=O)[C@H](C)C[C@H](C)/C=C/C=C/C=C/1C` [Example 3, Rapamycin-31,42-diester with N-[(1,1-dimethylethoxy)carbonyl]-N-methylglycine]: the “Skin Graft (days + SD)” value in test [1] was found to be 9.0 ± 0.9 days. The minimal inhibitory concentration (MIC) against Candida albicans 3669 is 0.4 µg/mL (≈ 0.318 µM); in test [2], 0.4 µg/mL (≈ 0.318 µM); in test [3] it was more than 0.4 µg/mL; in test [4] it was more than 0.4 µg/mL; in test [5], more than 0.4 µg/mL.
With `CO[C@H]1C[C@@H]2CC[C@@H](C)[C@@](O)(O2)C(=O)C(=O)N2CCCC[C@H]2C(=O)O[C@H]([C@H](C)C[C@@H]2CC[C@@H](OC(=O)CN(C)C(=O)OC(C)(C)C)[C@H](OC)C2)CC(=O)[C@H](C)/C=C(\C)[C@@H](O)[C@@H](OC)C(=O)[C@H](C)C[C@H](C)/C=C/C=C/C=C/1C` [Example 4, Rapamycin-42-ester with N-[(1,1-dimethylethoxy)carbonyl]-N-methylglycine], in test [1], the “Skin Graft (days + SD)” value is 12.3 ± 0.5 days. The MIC against Candida albicans 3669 stood at 0.2 µg/mL (≈ 0.184 µM); in test [2], 0.1 µg/mL (≈ 0.0921 µM); in test [3], 0.4 µg/mL (≈ 0.369 µM); in test [4], 0.1 µg/mL (≈ 0.0921 µM); in test [5], 0.1 µg/mL (≈ 0.0921 µM).
For the compound `CO[C@H]1C[C@@H]2CC[C@@H](C)[C@@](O)(O2)C(=O)C(=O)N2CCCC[C@H]2C(=O)O[C@H]([C@H](C)C[C@@H]2CC[C@@H](OC(=O)[C@H](CCC(=O)OC(C)(C)C)NC(=O)OC(C)(C)C)[C@H](OC)C2)CC(=O)[C@H](C)/C=C(\C)[C@@H](OC(=O)[C@H](CCC(=O)OC(C)(C)C)NC(=O)OC(C)(C)C)[C@@H](OC)C(=O)[C@H](C)C[C@H](C)/C=C/C=C/C=C/1C` [Example 5, Rapamycin-31,42-diester with 5-(1,1-dimethylethoxy)-2-[[(1,1-dimethylethoxy)carbonyl]amino]-5-oxopentanoic acid], the “Skin Graft (days + SD)” value in test [1] came to 8.8 ± 0.9 days. For the same compound, the minimal inhibitory concentration (MIC) (in the test with Candida albicans 3669; in test [2]; in test [3]; in test [4]; in test [5]) was more than 0.4 µg/mL each time.
Regarding `CO[C@H]1C[C@@H]2CC[C@@H](C)[C@@](O)(O2)C(=O)C(=O)N2CCCC[C@H]2C(=O)O[C@H]([C@H](C)C[C@@H]2CC[C@@H](OC(=O)[C@H](CCC(=O)OC(C)(C)C)NC(=O)OC(C)(C)C)[C@H](OC)C2)CC(=O)[C@H](C)/C=C(\C)[C@@H](O)[C@@H](OC)C(=O)[C@H](C)C[C@H](C)/C=C/C=C/C=C/1C` [Example 6, Rapamycin-42-ester with 5-(1,1-dimethylethoxy)-2-[[(1,1-dimethylethoxy)carbonyl]amino]-5-oxopentanoic acid], in test [1], the “Skin Graft (days + SD)” value was found to be 11.5 ± 3.5 days. The minimal inhibitory concentration (MIC) against Candida albicans 3669 was more than 0.4 µg/mL; in test [2], 0.1 µg/mL (≈ 0.0834 µM); in test [3], more than 0.4 µg/mL; in test [4] it was 0.2 µg/mL (≈ 0.167 µM); in test [5], 0.4 µg/mL (≈ 0.333 µM).
As for `CO[C@H]1C[C@@H]2CC[C@@H](C)[C@@](O)(O2)C(=O)C(=O)N2CCCC[C@H]2C(=O)O[C@H]([C@H](C)C[C@@H]2CC[C@@H](OC(=O)[C@H](CC(=O)OCc3ccccc3)NC(=O)OC(C)(C)C)[C@H](OC)C2)CC(=O)[C@H](C)/C=C(\C)[C@@H](OC(=O)[C@H](CC(=O)OCc2ccccc2)NC(=O)OC(C)(C)C)[C@@H](OC)C(=O)[C@H](C)C[C@H](C)/C=C/C=C/C=C/1C` [Example 7, Rapamycin-31,42-diester with 2-[[(1,1-dimethylethoxy)carbonyl]amino]-4-oxo-4-(phenylmethoxy) butanoic acid], the “Skin Graft (days + SD)” value in test [1] was determined as 7.7 ± 1.5 days.
As to `CO[C@H]1C[C@@H]2CC[C@@H](C)[C@@](O)(O2)C(=O)C(=O)N2CCCC[C@H]2C(=O)O[C@H]([C@H](C)C[C@@H]2CC[C@@H](OC(=O)C[C@H](NC(=O)OC(C)(C)C)C(=O)OCc3ccccc3)[C@H](OC)C2)CC(=O)[C@H](C)/C=C(\C)[C@@H](OC(=O)C[C@H](NC(=O)OC(C)(C)C)C(=O)OCc2ccccc2)[C@@H](OC)C(=O)[C@H](C)C[C@H](C)/C=C/C=C/C=C/1C` [Example 8, Rapamycin-31,42-diester with 3-[[(1,1-dimethylethoxy)carbonyl]amino]-4-oxo-4-(phenylmethoxy) butanoic acid], the minimum inhibitory concentration (MIC) (against Candida albicans 3669; in test [2]; in test [3]; in test [4]; in test [5]) was more than 0.4 µg/mL each time.
Take `CO[C@H]1C[C@@H]2CC[C@@H](C)[C@@](O)(O2)C(=O)C(=O)N2CCCC[C@H]2C(=O)O[C@H]([C@H](C)C[C@@H]2CC[C@@H](OC(=O)C[C@H](NC(=O)OC(C)(C)C)C(=O)OCc3ccccc3)[C@H](OC)C2)CC(=O)[C@H](C)/C=C(\C)[C@@H](O)[C@@H](OC)C(=O)[C@H](C)C[C@H](C)/C=C/C=C/C=C/1C` [Example 9, Rapamycin-42-ester with 3-[[(1,1-dimethylethoxy)carbonyl]amino]-4-oxo-4-(phenylmethoxy) butanoic acid]: the “Skin Graft (days + SD)” value in test [1] is 10.3 ± 0.8 days. For the same compound, the MIC in the test with Candida albicans 3669 is more than 0.4 µg/mL; in test [2], 0.4 µg/mL (≈ 0.328 µM); in test [3], more than 0.4 µg/mL; in test [4] it was 0.4 µg/mL (≈ 0.328 µM); in test [5] it was more than 0.4 µg/mL.
For `CO[C@H]1C[C@@H]2CC[C@@H](C)[C@@](O)(O2)C(=O)C(=O)N2CCCC[C@H]2C(=O)O[C@H]([C@H](C)C[C@@H]2CC[C@@H](OC(=O)CC[C@H](NC(=O)OC(C)(C)C)C(=O)OC(C)(C)C)[C@H](OC)C2)CC(=O)[C@H](C)/C=C(\C)[C@@H](O)[C@@H](OC)C(=O)[C@H](C)C[C@H](C)/C=C/C=C/C=C/1C` [Example 10, Rapamycin-42-ester with 5-(1,1-dimethyloxy)-4-[[(1,1-dimethylethoxy)carbonyl]amino]-5-oxopentanoicacid], the “Skin Graft (days + SD)” value in test [1] is 12.7 ± 1.2 days. In addition, the MIC in the test with Candida albicans 3669 is 0.4 µg/mL (≈ 0.333 µM); in test [2], 0.2 µg/mL (≈ 0.167 µM); in test [3], more than 0.4 µg/mL; in test [4] it was 0.2 µg/mL (≈ 0.167 µM); in test [5] it was 0.4 µg/mL (≈ 0.333 µM).
Consider `CO[C@H]1C[C@@H]2CC[C@@H](C)[C@@](O)(O2)C(=O)C(=O)N2CCCC[C@H]2C(=O)O[C@H]([C@H](C)C[C@@H]2CC[C@@H](OC(=O)CC[C@H](NC(=O)OC(C)(C)C)C(=O)OC(C)(C)C)[C@H](OC)C2)CC(=O)[C@H](C)/C=C(\C)[C@@H](OC(=O)CC[C@H](NC(=O)OC(C)(C)C)C(=O)OC(C)(C)C)[C@@H](OC)C(=O)[C@H](C)C[C@H](C)/C=C/C=C/C=C/1C` [Example 11, Rapamycin-31,42-diester with 5-(1,1-dimethylethoxy)-4-[[(1,1-dimethylethoxy)-carbonyl]-amino]-5-oxopentanoic acid], for which the “Skin Graft (days + SD)” value in test [1] is given as 10.5 ± 1.3 days. Besides, the MIC (in the test on Candida albicans 3669; in test [2]; in test [3]; in test [4]; in test [5]) was more than 0.4 µg/mL in each case.
